Assay results as given in patent publication US3982931A, “N,N-di-sec.butyl-benzamide herbicides” (priority 1967, dated 1976).

Legend:
Experiment in all cases: herbicidal activity, soil treatment one day after sowing
Assay type in all cases: in vivo
[1] = test system: chenopodium album L.
From the text: (§1) The infesting species and the agrarian species have been indicated in Table 1 by letters, as follows:
(§2) Method of evaluation of the results (of tests):
(§3) 1 slight differences with respect to the control;
(§4) 3 = considerable activity with damages that definitely impair the further development of most of the small plants; an activity degree already useful for practical purposes;
(§5) 4 = maximum of activity with lack of germination or total containment of the small plants in the emerging stage.
(§6) In the case of an intermediate activity between two classes of the scale, both values are recorded with the one which corresponds to the preeminent activity preceding.
(§7) TABLE 2 reports the activity data of other compounds that fall within the class which is the object of this invention.
(§8) TABLE 3 reports data on the herbicidal activity against infesting herbs, while TABLE 4 reports data concerning the activity on useful species of agricultural cultivations. These tables employ the criterion explained previously. […]

[2] = test system: setaria glauca L.
From the text: as §1, §2, §3, §4, §5
In the case of an intermediate activity between two classes of the scale, both values are recorded with the one which corresponds to the preeminent activity preceding. […]
as §8

[3] = test system: artemisia vulgaris L.
From the text: as §1
B = artemisia vulgaris L.
as §2, §3, §4, §5, §6, §7, §8

[4] = test system: amaranthus retroflexus L.
From the text: as §1
A = amaranthus retroflexus L.
as §2, §3, §4, §5, §6, §7, §8

[5] = test system: echinocloa crus-galli R.S.
From the text: as §1
D = echinocloa crus-galli R.S.
as §2, §3, §4, §5, §6, §7, §8

[6] = test system: vicia sativa L.
From the text: as §1, §2, §3, §4, §5, §6, §7

| SMILES | activity on C, 0-4 scale ([1]; 6 kg/ha) | activity on E, 0-4 scale ([2]; 6 kg/ha) | activity on B, 0-4 scale ([3]; 6 kg/ha) | activity on A, 0-4 scale ([4]; 6 kg/ha) | activity on D, 0-4 scale ([5]; 6 kg/ha) | activity on F, 0-4 scale ([6]; 6 kg/ha) | activity on C, 0-4 scale ([1]; 4 kg/ha) | activity on E, 0-4 scale ([2]; 4 kg/ha) | activity on B, 0-4 scale ([3]; 4 kg/ha) | activity on A, 0-4 scale ([4]; 4 kg/ha) | activity on D, 0-4 scale ([5]; 4 kg/ha) | activity on F, 0-4 scale ([6]; 4 kg/ha) |
| --- | --- | --- | --- | --- | --- | --- | --- | --- | --- | --- | --- | --- |
| CC(C)N(C(=O)c1ccc(Cl)cc1Cl)C(C)C [PA281, 2,4-dichloro-N,N-di-isopropyl-benzamide, reference compound] | 0-1 | 0-1 | 2 | 1-2 | 0-1 | 0 |  |  |  |  |  |  |
| CCCC(C)N(C(=O)c1ccc(Cl)c(Cl)c1)C(C)CC (centres unmarked) [PA634, 3,4-dichloro-N-sec.amyl,N-sec.butyl-benzamide] | 1-2 | 3-4 | 2 | 2 | 3 | 0 |  |  |  |  |  |  |
| CCCCN(CCCC)C(=O)c1cccc(Br)c1 [PA396, 3-bromo-N,N-di-n,butyl-benzamide, reference compound] | 0-1 | 0 | 1-2 | 1 | 0-1 | 0 |  |  |  |  |  |  |
| CCCCN(CC)C(=O)c1ccc(Cl)c(Cl)c1 [PA325, 3,4-dichloro-N-ethyl,N-n.butyl-benzamide, reference compound] | 2 | 0-1 | 2 | 3 | 0-1 | 0 |  |  |  |  |  |  |
| O=C(O)c1ccc(Cl)c(Cl)c1 [3,4-dichloro-benzoic acid, reference compound] | 0 | 0 | 0 | 0 | 0 | 0 |  |  |  |  |  |  |
| CCCCN(CCCC)C(=O)c1cc(Cl)cc(Cl)c1 [PA294, 3,5-dichloro-N,N-di-n.butyl-benzamide, reference compound] | 1 | 3 | 0-1 | 0-1 | 2 | 0 |  |  |  |  |  |  |
| O=C(O)c1ccc(Cl)cc1Cl [PA441, 2,4-dichloro-benzoic acid, reference compound] | 0 | 0 | 0 | 0 | 0 | 0 |  |  |  |  |  |  |
| O=C(O)c1cc(Cl)cc(Cl)c1 [PA440, 3,5-dichloro-benzoic acid, reference compound] | 0 | 0 | 0 | 0 | 0 | 0 |  |  |  |  |  |  |
| CCCN(CCC)C(=O)c1cccc(C)c1 [PA384, 3,methyl-N,N-di-n.propyl-benzamide, reference compound] | 2 | 0-1 | 2 | 1 | 1-2 | 1-2 |  |  |  |  |  |  |
| C=CCN(CC=C)C(=O)c1cccc(Br)c1 [PA499, 3-bromo-N,N-di-allyl-benzamide, reference compound] | 3 | 3 | 3 |  | 3 | 3 | 2 | 2 | 3 | 2-3 | 1 | 1 |
| CCCCN(C(=O)c1cccc(Br)c1)C(C)CC (centres unmarked) [PA525, 3-bromo-N,n.butyl-N-sec.butyl-benzamide] | 1 | 3-4 | 0-1 | 1-2 | 3 | 0 |  |  |  |  |  |  |
| CCCN(CCC)C(=O)c1ccc(Cl)cc1Cl [PA200, 2,4-dichloro-N,N-di-n-propyl-benzamide, reference compound] | 2-3 | 1 | 2-3 | 3 | 2 | 0-1 |  |  |  |  |  |  |
| CCC(C)N(C(=O)c1cc(Cl)c(Cl)c(Cl)c1)C(C)CC (centres unmarked) [PA621, 3,4,5-trichloro-N,N-di-sec.butyl-benzamide] | 2 | 4 | 2 | 2 | 4 | 0 |  |  |  |  |  |  |
| Cc1cccc(C(=O)N(C(C)C)C(C)C)c1 [PA385, 3,methyl-N,N-di-isopropyl-benzamide, reference compound] | 1 | 0-1 | 2 | 1-2 |  | 0-1 |  |  |  |  |  |  |
| CCN(CC)C(=O)c1ccc(Cl)cc1Cl [PA283, 2,4-dichloro-N,N-diethyl-benzamide, reference compound] | 1-2 | 1 | 2 | 1 | 1 | 1 |  |  |  |  |  |  |
| CCCN(CCC)C(=O)c1cccc(Cl)c1 [PA322, 3,chloro-N,N-di-n.propyl-benzamide, reference compound] | 0-1 | 0-1 | 1-2 | 1 | 1 |  |  |  |  |  |  |  |
| CCC(C)N(C(=O)c1cc(Cl)cc(Br)c1)C(C)CC (centres unmarked) [PA626, 3-bromo,5-chloro-N,N-di-sec.butyl-benzamide] | 0-1 | 4 | 0-1 | 1-2 | 3-4 | 0 |  |  |  |  |  |  |
| CCC(C)N(CC(C)C)C(=O)c1ccc(Cl)c(Cl)c1 (centres unmarked) [PA566, 3,4-dichloro-N-isobutyl,N-sec.butyl-benzamide] | 3 | 4 | 2-3 | 3 |  | 0-1 |  |  |  |  |  |  |
| CCCCN(CCCC)C(=O)c1cccc(C)c1 [PA386, 3,methyl-N,N-di-n.butyl-benzamide, reference compound] | 2-3 | 0-1 | 1-2 | 3 | 0-1 | 0-1 |  |  |  |  |  |  |
| O=C(O)c1cccc(Br)c1 [PA577, 3,bromo-benzoic acid, reference compound] | 0 | 0 | 0 | 0 | 0 | 0 |  |  |  |  |  |  |
| CC(C)CN(CC(C)C)C(=O)c1ccc(Cl)c(Cl)c1 [PA259, 3,4-dichloro-N,N-di-iso-butyl-benzamide, reference compound] | 1-2 |  | 2 | 1-2 |  | 0-1 |  |  |  |  |  |  |
| CCC(C)N(C(=O)c1ccc(Cl)c(I)c1)C(C)CC (centres unmarked) [PA614, 4-chloro,3-iodo-N,N-di-sec.butyl-benzamide] | 1 |  | 0-1 | 1 | 3 | 0 |  |  |  |  |  |  |
